Source: US20020016346A1, “Method for enhancing outflow of aqueous humor in treatment of glaucoma” (The Regents University of California, a California …, priority 1994, published 2002)
Where two headings read alike, the source gives them in different places.

Experiments:
Na+2Cl−K+ co-transporter = target: T1, Na+2Cl−K+ co-transporter (Oryctolagus cuniculus, UniProt P55015); experiment: Inhibition of short circuit current in perfused cortical thick ascending limb of the loop of Henle; format: cell-based, rabbit; conditions: concentration blocking 50% of short circuit current
T1 construct: cotransporter system found in the cortical thick ascending limbs of the loop of Henle of mammals; from tissue; host or cells: dissected, perfused cortical thick ascending limb tubules of rabbit kidney
T1 sequence (P55015 1-1099): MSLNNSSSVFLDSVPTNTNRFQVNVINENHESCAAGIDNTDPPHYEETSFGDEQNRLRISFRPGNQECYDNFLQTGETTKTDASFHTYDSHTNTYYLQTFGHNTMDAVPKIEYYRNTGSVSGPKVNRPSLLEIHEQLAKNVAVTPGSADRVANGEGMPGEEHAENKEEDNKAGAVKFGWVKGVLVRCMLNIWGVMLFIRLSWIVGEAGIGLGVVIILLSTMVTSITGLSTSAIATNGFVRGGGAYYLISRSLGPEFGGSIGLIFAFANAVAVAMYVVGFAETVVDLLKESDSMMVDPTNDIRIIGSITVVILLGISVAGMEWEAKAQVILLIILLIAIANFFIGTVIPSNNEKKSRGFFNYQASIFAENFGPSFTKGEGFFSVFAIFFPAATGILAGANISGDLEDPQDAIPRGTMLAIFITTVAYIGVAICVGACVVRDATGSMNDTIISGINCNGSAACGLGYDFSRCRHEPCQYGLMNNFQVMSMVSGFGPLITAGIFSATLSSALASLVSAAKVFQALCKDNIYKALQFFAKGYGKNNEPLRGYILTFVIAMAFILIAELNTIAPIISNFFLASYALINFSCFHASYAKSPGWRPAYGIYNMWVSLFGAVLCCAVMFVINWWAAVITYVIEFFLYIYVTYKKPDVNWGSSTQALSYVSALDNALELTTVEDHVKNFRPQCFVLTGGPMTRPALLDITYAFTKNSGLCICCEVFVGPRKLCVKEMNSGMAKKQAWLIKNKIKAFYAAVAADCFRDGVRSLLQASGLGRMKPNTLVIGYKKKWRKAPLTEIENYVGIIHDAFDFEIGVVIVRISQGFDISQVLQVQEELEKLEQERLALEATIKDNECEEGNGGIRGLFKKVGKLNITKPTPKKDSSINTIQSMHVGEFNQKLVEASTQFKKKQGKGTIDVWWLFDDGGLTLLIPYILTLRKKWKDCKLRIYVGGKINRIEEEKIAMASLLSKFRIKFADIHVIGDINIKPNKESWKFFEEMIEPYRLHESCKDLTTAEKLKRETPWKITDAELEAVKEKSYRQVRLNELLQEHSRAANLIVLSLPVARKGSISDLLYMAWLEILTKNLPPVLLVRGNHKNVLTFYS
From the text: B. Burg et al. (Am J. Physiol. 210:1293-1298, 1966) as modified by […] Arch. 390:30-37, 1981) and […] et al. (Pflüger's Arch. 389:175-176, 1981), both of which are incorporated herein by reference in their entireties. In brief, this in vitro test uses the Na-2Cl^- K^+ cotransporter system found in the cortical thick ascending limbs of the loop of Henle of mammals, particularly rabbits, for example, female white New Zealand rabbits. The tubules are dissected and perfused according to the known techniques, but with the rate of perfusion through the lumen kept high (10-20 nl/min) to prevent changes in the ionic composition of the perfusate along the perfused tubule. As control perfusate, a solution containing (mM): NaCl 145; […] KH2PO4 0.4; MgCl2 1; Ca gluconate 1.3; and glucose 5 is used on both sides of the epithelium with pH adjusted to 7.4 The transepithelial potential (Vtc) is recorded continuously on both ends of the tubule. […] The ratio of both values ([…] the equivalent short circuit current Itc. There is a direct relationship between the decrease of Itc and the inhibition of the Na^+2Cl^-K^+ co-transporter by contact with the test compound ([…] et al., Klin. Wochenschr. 61:1019-1027, 1983). For each drug under study, dose-response curves are established by adding compounds at various concentrations to the luminal perfusate with at least three determinations for each concentration. […] Details of this method have been published previously in M. E. O'Donnell, J. Biol. Chem. 264:11559-11566, 1991, which is incorporated herein by reference in its entirety. An illustration of the use of this method is found in Example 1B of this application.

[1] = Lipophilicity (log P′), n-octanol/phosphate buffer pH 7.4 shake-flask or RP-HPLC; format: physicochemical
Description: The lipophilicity of a compound is expressed in terms of an octanol:water coefficient determined by the standard technique of radiolabelling the compound and introducing a small amount into equal volumes of octanol and tris buffer (50 mM, pH 7.4). Generally the lipophilicity (log P′) is expressed as the logarithm of the partition coefficient in n-octanol/phosphate buffer, pH 7.4 using the well known shake-flask method as described by Cloux, et al., J. Pharm. Belg., 43:141-151, 1973, which is incorporated herein by reference in its entirety. The coefficient of lipophilicity (log P′) of the compounds useful for topical application to decrease intra-ocular pressure is preferably at least 0.005, and more preferably at least 0.01.
The lipophilicity of the aqueous humor outflow-increasing compounds of this invention can also be determined using a reversed phase, high performance liquid chromatograph (RP-HPLC) system for determination of the log P′ of the drug as described in B. Masereel, et al. (J. Pharm. Pharmacol. 44:589-593, 1992), which is incorporated herein by reference in its entirety. Briefly, a reversed phase column (RP-18) is equilibrated with n-propanol/phosphate buffer, pH 7.4 at a ratio of 30:70). Compounds to be tested are dissolved and eluted with the same solution. A series of standards with a wide range of lipophilicity, as determined by the shake-flask method, is run and a calibration curve is established for each session. KNO3 is injected to determine the void volume and […] is determined, wherein tr is the drug retention time andot is the retention time of NO3-. Calibration curves are calculated using log P′ and log k′ values. Log P′ values of other compounds are obtained by interpolation of the standard curves.

SMILES	IC50 (Na+2Cl−K+ co-transporter; read-out: IC50) [µM]	logP [1]	IC50 (Na+2Cl−K+ co-transporter)
Cc1cccc(Nc2ccncc2S(=O)(=O)NC(=O)NC(C)C)c1 [Compound 7]	0.2	0.45	–
CC(C)NC(=O)NS(=O)(=O)c1cnccc1NC1CCCCC1 [Compound 8]	0.7	0.58	–
O=C(NC1CCCCC1)NS(=O)(=O)c1cnccc1NC1CCCCC1 [Compound 9]	19	1.33	–
O=C(NC1CCCCC1)NS(=O)(=O)c1cnccc1NC1CCCCCC1 [Compound 10]	3.5	1.67	–
O=C(NC1CCCCC1)NS(=O)(=O)c1cnccc1NC1CCCCCCC1 [Compound 11]	0.47	2.05	–
O=C(NC1CCCCCC1)NS(=O)(=O)c1cnccc1NC1CCCCC1 [Compound 12]	9.5	1.72	–
O=C(NC1CCCCCC1)NS(=O)(=O)c1cnccc1NC1CCCCCC1 [Compound 13]	2.8	2.06	–
O=C(NC1CCCCCC1)NS(=O)(=O)c1cnccc1NC1CCCCCCC1 [Compound 14]	2	2.45	–
O=C(NC1CCCCCCC1)NS(=O)(=O)c1cnccc1NC1CCCCC1 [Compound 15]	1.4	2.07	–

Second part, the compound after the results:

IC50 (Na+2Cl−K+ co-transporter; read-out: IC50) [µM]	logP [1]	IC50 (Na+2Cl−K+ co-transporter)	SMILES
1.7	2.44	–	O=C(NC1CCCCCCC1)NS(=O)(=O)c1cnccc1NC1CCCCCC1 [Compound 16]
0.56	2.7	–	O=C(NC1CCCCCCC1)NS(=O)(=O)c1cnccc1NC1CCCCCCC1 [Compound 17]
> 100	3.45	inactive	O=C(NC1CCCCC1)NS(=O)(=O)c1cnccc1NC1CCCCCCCCCCC1 [Compound 18]
1.3	0.96	–	CC(C)NC(=S)NS(=O)(=O)c1cnccc1NC1CCCCCC1 [Compound 19]
0.79	1.79	–	O=S(=O)(NC(=S)NC1CCCCC1)c1cnccc1NC1CCCCCC1 [Compound 20]
0.32	0.62	–	O=C(NS(=O)(=O)c1cnccc1NC1CCCCC1)N1CCCCC1 [Compound 21]
0.25	1.24	–	O=C(NS(=O)(=O)c1cnccc1NC1CCCCCC1)N1CCCCC1 [Compound 22]
0.15	1.65	–	O=C(NS(=O)(=O)c1cnccc1NC1CCCCCCC1)N1CCCCC1 [Compound 23]
